Experimental data published in article PMC6271731, “Multitarget Molecular Hybrids of Cinnamic Acids” (Molecules, 2014).
Where “and” joins values, the source holds several entries; their conditions need not be identical. Identical values can stand only once. Marks after values point to notes of the source that are not given here.

Tests used:
[1] = Inhibition of linoleic acid lipid peroxidation (AAPH); conditions: % inhibition at 100 μM; pH 7.4, 37 °C
Procedure: Production of conjugated diene hydroperoxide by oxidation of sodium linoleate in an aqueous dispersion is monitored at 234 nm. AAPH is used as a free radical initiator [12, 24]. Ten microlitres of the 16 mM sodium linoleate solution was added to the UV cuvette containing 930 μL of 0.05 M phosphate buffer, pH 7.4 prethermostated at 37 °C. The oxidation reaction was initiated at 37 °C under air by the addition of 40 mM AAPH solution (50 μL). Ten μL of the tested compounds were added in the mixture. Lipid oxidation was measured in the presence of the same level of DMSO. The rate of oxidation at 37 °C was monitored by recording the increase in absorption at 234 nm caused by conjugated diene hydroperoxides. The results were compared to the appropriate standard inhibitor trolox (63%) (Table 1).

[2] = target: T1, pancreatic bovine trypsin (Bos taurus, UniProt P00760); assay: Inhibition of trypsin induced proteolysis in vitro; type: biochemical; conditions: bovine albumin substrate, pH 7.6, 37 °C; read-out: IC50 μM Trypsin Inh.
T1 construct: purchased Sigma Chemical, Co. (St. Louis, MO, USA)
T1 sequence (P00760 24-246): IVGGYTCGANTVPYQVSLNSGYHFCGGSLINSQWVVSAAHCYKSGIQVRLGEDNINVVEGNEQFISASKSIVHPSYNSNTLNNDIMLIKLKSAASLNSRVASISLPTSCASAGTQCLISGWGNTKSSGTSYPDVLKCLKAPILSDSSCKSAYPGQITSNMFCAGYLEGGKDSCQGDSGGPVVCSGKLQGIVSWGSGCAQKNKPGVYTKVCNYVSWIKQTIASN
Excerpt: All chemicals, solvents, chemical and biochemical reagents were of analytical grade and purchased from commercial sources (Merck, Merck KGaA, Darmstadt, Germany, Fluka Sigma-Aldrich Laborchemikalien GmbH, Hannover, Germany, Alfa Aesar, Karlsruhe, Germany and Sigma, St. Louis, MO, USA). Soybean lipoxygenase, pancreatic bovine trypsin, sodium linoleate, free radical DPPH and 2,2-azinobis-2-methyl-propanimidamine HCl (AAPH) were obtained from Sigma Chemical, Co. (St. Louis, MO, USA), carrageenin, type K, was commercially available. All starting materials were obtained from commercial sources and used without further purification.
The test was carried out according to a modified Kunitz method. Bovine albumin was used as substrate for trypsin. The reaction mixture consisted of 0.075 mg/mL trypsin (200 μL) and 780 μL of phosphate buffer pH 7.6 (including the tested compounds (20 μL in DMSO, final concentration 100 μM) preincubated at 37 °C for 20 min and then 1 mL of albumin (stock solution 6 g/100 mL in phosphate buffer 0.1 M, pH 7.6) was added and incubated at 37 °C for 30 min. After the incubation 1 mL of 5% trichloroacetic acid was added to the incubated solution to stop the enzyme’s reaction and allowed to set at room temperature for 1 h. Then the solution was filtered by filter paper and the absorption of the filtered solution was measured at 280 nm. Salicylic acid was used as a reference compound (Table 1).

[3] = test system: acetic acid-induced writhing; assay: Antinociceptive screen (writhing test); type: in vivo, Wistar rats; conditions: i.p. 30 min before 0.6% acetic acid, writhes counted over 30 min
Procedure: (§1) Anti-inflammatory tests were conducted on Fisher-344 inbred rats of ca. 200 g body weight whereas antinociception and motor and sensory functions after sciatic nerve crash were performed on Wistar rats. Both sexes were used. Females pregnant were excluded. Each group was composed of 6 animals. The animals, which have been bred in our laboratory, were housed under standard conditions and received a diet of commercial food pellets and water ad libitum during the maintenance. Our studies were carried out in accordance with recognised guidelines on animal experimentation.
[…] Controls received the liquid vehicle only. All the in vivo experiments were repeated at least in triplicate and were subjected to statistic analysis using the student’s t-test.
The writhing reflex was used. The test compounds were administered i.p. 30 min prior to the i.p. administration of 1 mL/100 g body weight of 0.6% acetic acid. […] After 5 min, the number of stretches characterized by repeated contractions of the abdominal musculature accompanied by extension of the hind limbs was counted every 5 min for the next 30 min. […] The % antinociceptive activity (a:a) was calculated as: % a:a = (n − n'/n) × 100 (a: a analgesic activity, n average number of writhes of control group, n' average number in the test group).

[4] = test system: carrageenin-induced rat paw oedema; assay: Inhibition of the carrageenin-induced rat paw oedema; type: in vivo, Fisher-344 rats; conditions: 0.01 mmol/1 kg, i.p., 3.5 h after carrageenin
Procedure: as §1
The tested compounds 0.01 mmol/kg body weight were suspended in water with few drops of Tween 80 and ground in a mortar before use. Controls received the liquid vehicle only. All the in vivo experiments were repeated at least in triplicate and were subjected to statistic analysis using the student’s t-test.
Oedema was induced in the right hind paw of Fisher 344 rats by the intradermal injection of 0.1 mL 2% carrageenin in water. Each group was composed of 6 animals which they were entirely fasted during the experiment period. The tested compounds 0.01 mmol/kg body weight, were given intraperitoneally simultaneously with the carrageenin injection. The rats were euthanized 3.5 h after carrageenin injection. The difference between the weight of the injected and not-injected paws was calculated for each animal. The change in paw weight was compared with that in control animals (treated with water) and expressed as a percent inhibition of the oedema (ICPE % values in Table 1). Indomethacin 0.01 mmol/kg was used as reference compound. ICPE % are the mean values from two different experiments with a standard error of the mean less than 10%.

esterase = assay: In vitro esterase activity on hybrids; type: in vitro ADME; conditions: 1 mM, phosphate buffer pH 7.8, 37 °C, 90 min and 24 h
Procedure: Representative hybrid molecules are subjected to an esterase activity in vitro. 100 μL of 1 mg/mL 0.001 N hydrochloric acid of esterase solution was added to 1,250 μL of phosphate buffer (0.1 M) pH 7.8 including the tested compounds (150 μL in DMSO, final concentration 1 mM) and incubated at 37 °C for 90 min. The incubated solution was allowed to set at room temperature. Then, the absorption was measured at 256 nm. The measurement was repeated after 24 h of incubation at 37 °C.

[5] = In vitro stability under acidic and basic conditions; type: physicochemical; conditions: pH 3, 4.5 and 9, 37 °C, 24 h
Procedure: In an attempt to mimic the acidic/basic conditions in the gastrointestinal route, measurements at pH: (i) 3; (ii) 4.5 and (iii) 9 were performed. The pH value was adjusted with the appropriate buffer (CH3COONa/CH3COOH) to 4.5 and 3 and Tris to pH 9. 20 μL of the tested compounds in DMSO and buffer 980 μL (4.5 or 3 pH) incubated at 37 °C for 24 h. The stability of the compounds was monitored chromatographically after 3 and 9 h. After 24 h, the incubated solution (in all cases) was treated with chloroform (1 mL). The organic layer was analyzed spectrophotometrically.

For `CC(=O)Nc1ccc(OC(=O)/C=C/c2cccc(Oc3ccccc3)c2)cc1` [Compound 2a, (E)-4-Acetamidophenyl 3-(3-phenoxyphenyl)acrylate], the “AAPH % (% inhibition of lipid peroxidation)” value [1] was 90%, the IC50 [2] was 10 µM and the “% ANA (in vivo analgesic-antinociceptive activity)” value ([3]; 0.01 mmol/0.1 kg) was 91 ** %. The inhibition in vivo at 0.01 mmol/0.1 kg ([3]; Rattus norvegicus, ip, 0.5 h, read-out: % ANA (in vivo analgesic-antinociceptive activity)) was 91%, the “% ICPE (carrageenin-induced rat paw oedema inhibition)” value [4] was 36.5% and 36.5 ** % and the “hydrolysis of the ester group by esterase” value (esterase) was “hydrolyzed”. For the same compound, the “stability under acidic and basic conditions” value [5] was “confirmed the stability”.
